According to patent US11925649B2, “Treatments for diabetic neuropathy” (University of Manitoba, priority 2010, dated 2024):

Columns and labels:
[1] = test system: STZ diabetic Swiss Webster mice; experiment: Restorative subcutaneous injections in diabetic mice; assay type: in vivo, mouse; details: 10 mg/kg daily s.c. from week 14
Procedure: Male out-bred Swiss Webster mice were made diabetic with 2 injections of 90 mg/kg STZ on consecutive days. […] The mice were maintained for 14 weeks after STZ injections. […] At 14 weeks, the diabetic mice were separated into two groups. The first was the untreated group of diabetic mice.
The function of the small sensory neurons in diabetic and non-diabetic groups of mice were assessed at 5 wks, 7 wks, 11 wks, and 14 wks after the STZ injections.

[2] = test system: STZ-diabetic Sprague Dawley rats; experiment: Prevention of tactile allodynia and sensory nerve conduction slowing in diabetic rats; assay type: in vivo, rat
Procedure: Two groups of adult female Sprague Dawley rats were made diabetic with a single intraperitoneal injection of 55 mg/kg STZ. […] A third group of adult male rats was maintained as non-diabetic controls. The three groups of rats were monitored for the onset of diabetic painful neuropathy by measuring paw tactile response thresholds at weeks 5 and 9 of diabetes, as taught by Calcutt (1996, Pain: 68:293-299). […] Sensory nerve conduction velocity (SNCV) was measured in the same cohorts of rats after 8 weeks of diabetes by measuring under isoflurane anesthesia, the latency of H waves in the electromyogram of interosseous muscles following electrical stimulation of the sciatic nerve at the sciatic notch and Achilles tendon and then measuring the distance between the two points of nerve stimulation, as taught by Calcutt (J. Clin. Invest. 111:507-514, 2003).

For CN1CCN(CC(=O)N2c3ccccc3C(=O)Nc3cccnc32)CC1 [pirenzepine, 11-[2-(4-methylpiperazin-1-yl)acetyl]-5H-pyrido[2,3-b][1,4]benzodiazepin-6-1], which thermal latency ([1]; 21st week, 7 weeks of treatment) is on record?
The thermal latency was “identical to the non-diabetic controls”.

What about the IENF profiles ([1]; at 21 weeks) of the same molecule?
Its IENF profiles is “restored the IENF profiles to approximate those of the non-diabetic control mice”.

And the thermal latency ([1]; within 4 weeks of treatment (18 weeks))?
The thermal latency was “significantly reduced thermal latency”.

What about the “paw tactile response thresholds” value ([2]; 10 mg/kg daily s.c., after 5 weeks of diabetes) of the same molecule?
The value was “significantly higher than vehicle treated diabetic rats”.

What about the “sensory nerve conduction velocity (SNCV)” value ([2]; 10 mg/kg daily s.c., after 8 weeks of diabetes) of the same molecule?
Its value is “partially prevented this deficit”.

And the “paw tactile response thresholds” value ([2]; 10 mg/kg daily s.c., week 9 of diabetes)?
Its value is “not different from control rats”.

What about the paw tactile allodynia ([2]; daily s.c., after 5 or 9 weeks of treatment) of the same molecule?
The paw tactile allodynia was “prevents paw tactile allodynia”.
